Data from US20160304477A1 (LAguna Pharmaceuticals, Inc., priority 2013, published 2016).
Read-outs that look alike come from different tables or passages of the source.

Assays:
[1] = Plasma concentrations of vanoxerine and its hydroxyl metabolites in patients after a 300 mg dose of vanoxerine (LC-MS/MS); type: in vivo, human; conditions: 300 mg vanoxerine; for Concentrations (plasma), average: all 25 patients; for High concentration group average (plasma concentration): high concentration group (10 patients); for Low concentration group average (plasma concentration): low concentration group (15 patients)
Description: Each patient gave blood samples before administration of their dose, and then again at nine further time points, 30 minutes after admiration, 1, 2, 3, 4, 6, 8, 12, and 24 hours post administration.
Samples: A total of 270 human plasma samples were received (in duplicate). The samples were shipped frozen over dry ice. The samples were stored at −70° C. (nominal) until analysis.
Frozen samples were thawed at room temperature. Samples, calibrators, QC samples, sample blanks (blank plasma) and reagent blanks (water) were processed at room temperature. To 200 μL aliquots of each sample, calibrator, and QC sample are added 20 μL of 500 ng/mL of internal standard solution. A sample blank (blank plasma) and reagent blank (water) were also prepared, but without addition of internal standard solution (20 μL of diluent was added instead). To each sample, 200 μL of 1% ammonium hydroxide solution were added and vortex mixed. 3.0 mL of methyl tert-butyl ether were added and then vortex mix for 30 seconds. The sample is then centrifuged for 5 minutes at 4000 rpm and then transferred for about 30 minutes at −70° C. (nominal). The upper (organic) layer was transferred into an evaporation tubes and then evaporated under N2 stream at ˜50° C. for about 20 min. Samples were then reconstituted in 1000 μL reconstitution solution (80:20:0.1 water: acetonitrile: formic acid). Samples were mixed, allow to stand for about 3 minutes and mixed again. 900 μL of the sample solution was transferred to a 1.5 mL microcentrifuge tube and centrifuged for 5 minutes at 14000 rpm at room temperature. 800 μL of the sample solution was transferred to a glass autosampler vial, and then transferred to the autosampler for analysis. Samples were separated using reversed-phase liquid chromatography with a C18 column.
Detection was based on electro-spray interface in positive mode (ESI+) LC-MS/MS technique, using Micromass Quattro Premier XE MS/MS detector with MassLynx and QuanLynx software version 4.1. […] The MRM transition for all hydroxyl metabolites was m/z 467→203.

[2] = healthy subjects, cited from earlier work
[3] = 1 h post administration, 1.00 = below LLOQ
[4] = 2 h post administration, 1.00 = below LLOQ
[5] = 3 h post administration, 1.00 = below LLOQ
[6] = 4 h post administration, 1.00 = below LLOQ
[7] = 6 h post administration, 1.00 = below LLOQ
[8] = 8 h post administration, 1.00 = below LLOQ
[9] = 12 h post administration, 1.00 = below LLOQ
[10] = 24 h post administration, 1.00 = below LLOQ
[11] = .5 h post administration, 1.00 = below LLOQ
[12] = time -15 (before administration), 1.00 = below LLOQ

Compound	Concentrations (plasma), average [1, 3] [ng/mL]	Concentrations (plasma), average [1, 4] [ng/mL]	Concentrations (plasma), average [1, 5] [ng/mL]	Concentrations (plasma), average [1, 6] [ng/mL]	Concentrations (plasma), average [1, 7] [ng/mL]	Concentrations (plasma), average [1, 8] [ng/mL]	Concentrations (plasma), average [1, 9] [ng/mL]	Concentrations (plasma), average [1, 10] [ng/mL]	Concentrations (plasma), average [1, 11] [ng/mL]	Concentrations (plasma), average [1, 12] [ng/mL]	High concentration group average (plasma concentration) [1, 3] [ng/mL]	High concentration group average (plasma concentration) [1, 4] [ng/mL]	High concentration group average (plasma concentration) [1, 5] [ng/mL]	High concentration group average (plasma concentration) [1, 6] [ng/mL]	High concentration group average (plasma concentration) [1, 7] [ng/mL]	High concentration group average (plasma concentration) [1, 8] [ng/mL]	High concentration group average (plasma concentration) [1, 9] [ng/mL]	High concentration group average (plasma concentration) ([1]; 24 h post administration) [ng/mL]	High concentration group average (plasma concentration) [1, 11] [ng/mL]	High concentration group average (plasma concentration) [1, 12] [ng/mL]	also measured
16-hydroxyl vanoxerine [M02]	1.02	1.02	1.01	1.01	1.00	1.00	1.00	1.00	1.00	1.00	1.00	1.05	1.03	1.02	1.00	1.00	1.00	0.00	1.00	1.00	Low concentration group average (plasma concentration) [1, 3]: 1.03 ng/mL; Low concentration group average (plasma concentration) [1, 4]: 1.00 ng/mL; Low concentration group average (plasma concentration) [1, 5]: 1.00 ng/mL; Low concentration group average (plasma concentration) [1, 6]: 1.00 ng/mL; Low concentration group average (plasma concentration) [1, 7]: 1.00 ng/mL; Low concentration group average (plasma concentration) [1, 8]: 1.00 ng/mL; Low concentration group average (plasma concentration) [1, 9]: 1.00 ng/mL; Low concentration group average (plasma concentration) [1, 10]: 1.00 ng/mL; Low concentration group average (plasma concentration) [1, 11]: 1.00 ng/mL; Low concentration group average (plasma concentration) [1, 12]: 1.00 ng/mL
17-hydroxyl vanoxerine [M01]	7.51	19.65	18.68	16.42	11.48	8.98	6.30	3.66	1.93	1.00	8.64	28.00	29.64	24.93	18.08	14.50	9.98	1.72	2.55	1.00	Low concentration group average (plasma concentration) [1, 3]: 6.76 ng/mL; Low concentration group average (plasma concentration) [1, 4]: 14.09 ng/mL; Low concentration group average (plasma concentration) [1, 5]: 11.38 ng/mL; Low concentration group average (plasma concentration) [1, 6]: 10.34 ng/mL; Low concentration group average (plasma concentration) [1, 7]: 7.08 ng/mL; Low concentration group average (plasma concentration) [1, 8]: 5.30 ng/mL; Low concentration group average (plasma concentration) [1, 9]: 3.67 ng/mL; Low concentration group average (plasma concentration) [1, 10]: 2.66 ng/mL; Low concentration group average (plasma concentration) [1, 11]: 1.52 ng/mL; Low concentration group average (plasma concentration) [1, 12]: 1.00 ng/mL
Fc1ccc(C(OCCN2CCN(CCCc3ccccc3)CC2)c2ccc(F)cc2)cc1 [Vanoxerine, 1-[2-[bis(4-fluorophenyl)methoxy]ethyl]-4-(3-phenylpropyl)piperazine]	–	–	–	–	–	–	–	–	–	–	–	–	–	–	–	–	–	–	–	–	side-effects ([2]; daily repetitive dose of 50 mg): no side-effects should be expected; side-effects ([2]; higher doses of vanoxerine): some effects were seen with regard to concentration difficulties, increase systolic blood pressure, asthenia, and a feeling of drug influence
